Test results published in US9260425B2 (Genetech, Inc., priority 2011, dated 2016).

Target: Pim-1 (Homo sapiens (Human), UniProt P11309)
Assay: Pim kinase binding activity assay (Example 901), PIM-1 enzyme, Caliper microfluidic peptide phosphorylation
Format: biochemical
Settings: 20 pM PIM-1, 10 μM ATP, 1 μM FAM-peptide, 90 minutes at room temperature
Summary of the method: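 The readout was microfluidic mobility-shift separation of a FAM-tagged Pim-specific peptide, excited at 488 nm and read at 530 nm, with Ki calculated from percent conversion. Reactions held 20 pM PIM-1, 1 μM peptide and 10 μM ATP in pH 7.2 HEPES/MgCl2/DTT buffer, ran 90 min at room temperature and were stopped with EDTA.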

Sequence of Pim-1 (P11309 whole entry): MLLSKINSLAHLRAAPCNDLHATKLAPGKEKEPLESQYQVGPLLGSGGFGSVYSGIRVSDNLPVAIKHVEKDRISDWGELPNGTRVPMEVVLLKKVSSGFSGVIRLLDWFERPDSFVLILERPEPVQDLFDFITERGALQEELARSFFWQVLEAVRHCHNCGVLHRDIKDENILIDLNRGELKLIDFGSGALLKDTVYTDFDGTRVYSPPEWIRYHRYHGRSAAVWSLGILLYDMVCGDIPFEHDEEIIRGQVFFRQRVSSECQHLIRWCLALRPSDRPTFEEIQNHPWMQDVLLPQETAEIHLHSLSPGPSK

Row | Compound | Ki [nM]
1 | CCn1cc(-c2cc3c(-c4cc(CO)ccn4)n[nH]c3cn2)cn1 [Example 498, (2-(5-(1-ethyl-1H-pyrazol-4-yl)-1H-pyrazolo[3,4-c]pyridin-3-yl)pyridin-4-yl)methanol] | 17.2
2 | N[C@@H]1CCCCN(c2cccc(-c3n[nH]c4cnc(-c5cnn(CCF)c5)cc34)n2)C1 [Example 520, (R)-1-(6-(5-(1-(2-fluoroethyl)-1H-pyrazol-4-yl)-1H-pyrazolo[3,4-c]pyridin-3-yl)pyridin-2-yl)azepan-3-amine] | 0.098
3 | Cc1n[nH]c2cnc(-c3cncc(F)c3)cc12 [Example 123, 5-(5-fluoropyridin-3-yl)-3-methyl-1H-pyrazolo[3,4-c]pyridine] | 737
4 | Cn1cc(-c2cc3c(CC#N)n[nH]c3cn2)cn1 [Example 135, 2-(5-(1-methyl-1H-pyrazol-4-yl)1H-pyrazolo[3,4-c]pyridin-3-yl)acetonitrile] | 387
5 | CCc1ccc(-c2n[nH]c3cnc(-c4cccnc4)cc23)nc1N1CCC[C@H](N)C1 [Example 327, (S)-1-(3-ethyl-6-(5-(pyridin-3-yl)-1H-pyrazolo[3,4-c]pyridin-3-yl)pyridin-2-yl)piperidin-3-amine] | 0.035
6 | Cn1cc(-c2cc3c(-c4cccc(N5CCC(N)(C(F)(F)F)C5)n4)n[nH]c3cn2)cn1 (stereo not drawn) [Example 286, 1-(6-(5-(1-methyl-1H-pyrazol-4-yl)-1H-pyrazolo[3,4-c]pyridin-3-yl)pyridin-2-yl)-3-(trifluoromethyl)pyrrolidin-3-amine] | 0.093
7 | Cn1cc(-c2cc3c(-c4cccc(O[C@@H]5CCCNC5)n4)n[nH]c3cn2)cn1 [Example 264, (R)-5-(1-methyl-1H-pyrazol-4-yl)-3-(6-(piperidin-3-yloxy)pyridin-2-yl)-1H-pyrazolo[3,4-c]pyridine] | 0.27
8 | CCn1cc(-c2cc3c(-c4cc(C)cc(N5CCCNCC5)n4)n[nH]c3cn2)cn1 [Example 457, 3-(6-(1,4-diazepan-1-yl)-4-methylpyridin-2-yl)-5-(1-ethyl-1H-pyrazol-4-yl)-1H-pyrazolo[3,4-c]pyridine] | 0.049
9 | O=C1OCCN1c1cc2c(-c3cccc(N4CCNCC4)n3)n[nH]c2cn1 [Example 415, 3-(3-(6-(piperazin-1-yl)pyridin-2-yl)-1H-pyrazolo[3,4-c]pyridin-5-yl)oxazolidin-2-one] | 104
10 | NC1CCCCN(c2cccc(-c3n[nH]c4cnc(-c5cnn(CCF)c5)cc34)n2)C1 (stereo not drawn) [Example 514, 1-(6-(5-(1-(2-fluoroethyl)-1H-pyrazol-4-yl)-1H-pyrazolo[3,4-c]pyridin-3-yl)pyridin-2-yl)azepan-3-amine] | 0.077
11 | CCn1cc(-c2cc3c(-c4cccc(N5CCN[C@H](C)C5)n4)n[nH]c3cn2)cn1 [Example 397, (R)-5-(1-ethyl-1H-pyrazol-4-yl)-3-(6-(3-methylpiperazin-1-yl)pyridin-2-yl)-1H-pyrazolo[3,4-c]pyridine] | 0.046
12 | CCn1cc(-c2cc3c(-c4ccccn4)n[nH]c3cn2)cn1 [Example 508, 5-(1-ethyl-1H-pyrazol-4-yl)-3-(pyridin-2-yl)-1H-pyrazolo[3,4-c]pyridine] | 10.6
13 | Fc1ccccc1-c1n[nH]c2cnc(-c3cnccc3OC3CCNCC3)cc12 [Example 195, 3-(2-fluorophenyl)-5-(4-(piperidin-4-yloxy)pyridin-3-yl)-1H-pyrazolo[3,4-c]pyridine] | 0.567
14 | CCn1cc(-c2cc3c(-c4cccc(N5CCCCC(N)C5)n4)n[nH]c3cn2)cn1 (stereo not drawn) [Example 518, 1-(6-(5-(1-ethyl-1H-pyrazol-4-yl)-1H-pyrazolo[3,4-c]pyridin-3-yl)pyridin-2-yl)azepan-3-amine] | 0.082
15 | c1cncc(-c2cc3c(CNCC4CCNCC4)n[nH]c3cn2)c1 [Example 113, 1-(piperidin-4-yl)-N-((5-(pyridin-3-yl)-1H-pyrazolo[3,4-c]pyridin-3-yl)methyl)methanamine] | 3200
16 | N#Cc1cc2c(-c3cccc(N4CCNCC4)n3)n[nH]c2cn1 [Example 400, 3-(6-(piperazin-1-yl)pyridin-2-yl)-1H-pyrazolo[3,4-c]pyridine-5-carbonitrile] | 51.1
17 | CCn1cc(-c2cc3c(-c4cc(C(C)C)ccn4)n[nH]c3cn2)cn1 [Example 507, 5-(1-ethyl-1H-pyrazol-4-yl)-3-(4-isopropylpyridin-2-yl)-1H-pyrazolo[3,4-c]pyridine] | 29.8

Next, values leading:

Row | Ki [nM] | Compound
18 | 0.049 | CS(=O)(=O)c1cncc(-c2cc3c(-c4cccc(N5CCNCC5)n4)n[nH]c3cn2)c1 [Example 470, 5-(5-(methylsulfonyl)pyridin-3-yl)-3-(6-(piperazin-1-yl)pyridin-2-yl)-1H-pyrazolo[3,4-c]pyridine]
19 | 0.07 | c1cncc(-c2cc3c(-c4cccc(N5CCC(C6CCNCC6)CC5)n4)n[nH]c3cn2)c1 [Example 273, 3-(6-(4,4′-bipiperidin-1-yl)pyridin-2-yl)-5-(pyridin-3-yl)-1H-pyrazolo[3,4-c]pyridine]
20 | 0.181 | OC1CCN(c2nc(-c3n[nH]c4cnc(-c5cccnc5)cc34)ccc2Br)CC1 [Example 292, 1-(3-bromo-6-(5-(pyridin-3-yl)-1H-pyrazolo[3,4-c]pyridin-3-yl)pyridin-2-yl)piperidin-4-ol]
21 | 2.31 | c1cncc(-c2cc3c(-c4cn[nH]c4)n[nH]c3cn2)c1 [Example 156, 3-(1H-pyrazol-4-yl)-5-(pyridin-3-yl)-1H-pyrazolo[3,4-c]pyridine]
22 | 0.004 | CCc1cncc(-c2cc3c(-c4cccc(N5CCNCC5)n4)n[nH]c3cn2)c1 [Example 438, 5-(5-ethylpyridin-3-yl)-3-(6-(piperazin-1-yl)pyridin-2-yl)-1H-pyrazolo[3,4-c]pyridine]
23 | 2.78 | NC1CCN(c2cc(-c3n[nH]c4cnc(-c5cccnc5)cc34)ccn2)CC1 [Example 160]
24 | 3400 | N[C@@H]1CCCN(Cc2n[nH]c3cnc(-c4cccnc4)cc23)C1 [Example 105, (R)-1-((5-(pyridin-3-yl)-1H-pyrazolo[3,4-c]pyridin-3-yl)methyl)piperidin-3-amine]
25 | 0.264 | N[C@H]1CCCN(c2cncc(-c3cc4c(-c5ccccc5F)n[nH]c4cn3)c2)C1 [Example 180, (S)-1-(5-(3-(2-fluorophenyl)-1H-pyrazolo[3,4-c]pyridin-5-yl)pyridin-3-yl)piperidin-3-amine]
26 | 0.032 | Cc1ccc(-c2n[nH]c3cnc(-c4cccnc4)cc23)nc1N1CCN(C)CC1 [Example 257, 3-(5-methyl-6-(4-methylpiperazin-1-yl)pyridin-2-yl)-5-(pyridin-3-yl)-1H-pyrazolo[3,4-c]pyridine]
27 | 0.0662 | N[C@H]1C[C@@H](F)CN(c2cccc(-c3n[nH]c4cnc(-c5cccnc5)cc34)n2)C1 [Example 321, (3S,5R)-5-fluoro-1-(6-(5-(pyridin-3-yl)-1H-pyrazolo[3,4-c]pyridin-3-yl)pyridin-2-yl)piperidin-3-amine]
28 | 307 | NC(=O)c1cccc(-c2n[nH]c3cnc(-c4cccnc4)cc23)c1 [Example 125, 3-(5-(pyridin-3-yl)-1H-pyrazolo[3,4-c]pyridin-3-yl)benzamide]
29 | 1.57 | N[C@H]1CCN(c2ccc(-c3n[nH]c4cnc(-c5cccnc5)cc34)nc2)C1=O [Example 334, (S)-3-amino-1-(6-(5-(pyridin-3-yl)-1H-pyrazolo[3,4-c]pyridin-3-yl)pyridin-3-yl)pyrrolidin-2-one]
30 | 8.77 | c1cncc(-c2cc3c(-c4ccncc4)n[nH]c3cn2)c1 [Example 194, 5-(pyridin-3-yl)-3-(pyridin-4-yl)-1H-pyrazolo[3,4-c]pyridine]
31 | 0.139 | CCn1cc(-c2cc3c(-c4cccc(N5CCCC[C@@H](O)C5)n4)n[nH]c3cn2)cn1 [Example 502, (R)-1-(6-(5-(1-ethyl-1H-pyrazol-4-yl)-1H-pyrazolo[3,4-c]pyridin-3-yl)pyridin-2-yl)azepan-3-ol]
32 | 0.021 | COc1cncc(-c2cc3c(-c4cccc(N5CCNCC5)n4)n[nH]c3cn2)c1 [Example 436, 5-(5-methoxypyridin-3-yl)-3-(6-(piperazin-1-yl)pyridin-2-yl)-1H-pyrazolo[3,4-c]pyridine]
33 | 1.02 | N[C@@H]1CCN(c2ccc(-c3n[nH]c4cnc(-c5cccnc5)cc34)cn2)C1 [Example 203, (R)-1-(5-(5-(pyridin-3-yl)-1H-pyrazolo[3,4-c]pyridin-3-yl)pyridin-2-yl)pyrrolidin-3-amine]
34 | 0.091 | Cc1ccc(-c2n[nH]c3cnc(-c4cccnc4)cc23)nc1N1CC[C@H](O)C1 [Example 305, (S)-1-(3-methyl-6-(5-(pyridin-3-yl)-1H-pyrazolo[3,4-c]pyridin-3-yl)pyridin-2-yl)pyrrolidin-3-ol]
35 | 0.049 | Cc1ccc(-c2n[nH]c3cnc(-c4cccnc4)cc23)nc1N1CCC(N)CC1 [Example 243, 1-(3-methyl-6-(5-(pyridin-3-yl)-1H-pyrazolo[3,4-c]pyridin-3-yl)pyridin-2-yl)piperidin-4-amine]
36 | 0.397 | N[C@H]1CCC[C@H](Nc2cccc(-c3n[nH]c4cnc(-c5cccnc5)cc34)n2)C1 [Example 353, (1S,3S)-N1-(6-(5-(pyridin-3-yl)-1H-pyrazolo[3,4-c]pyridin-3-yl)pyridin-2-yl)cyclohexane-1,3-diamine]
37 | 2.83 | C1=C(c2n[nH]c3cnc(-c4cccnc4)cc23)CCC1 [Example 225, 3-cyclopentenyl-5-(pyridin-3-yl)-1H-pyrazolo[3,4-c]pyridine]
38 | 0.412 | O[C@@H]1CCN(c2nc(-c3n[nH]c4cnc(-c5cccnc5)cc34)ccc2Br)C1 [Example 293, (R)-1-(3-bromo-6-(5-(pyridin-3-yl)-1H-pyrazolo[3,4-c]pyridin-3-yl)pyridin-2-yl)pyrrolidin-3-ol]
39 | 0.027 | CCn1cc(-c2cc3c(-c4ccc(C)c(N5CCC[C@H](N)C5)n4)n[nH]c3cn2)cn1 [Example 430, (S)-1-(6-(5-(1-ethyl-1H-pyrazol-4-yl)-1H-pyrazolo[3,4-c]pyridin-3-yl)-3-methylpyridin-2-yl)piperidin-3-amine]
